Test results as given in PubChem BioAssay AID308 (DTP/NCI, 2004).
Where “and” joins values, the source holds several entries; their conditions need not be identical. Equal values may be shown once. Inconclusive results and toxic doses are left out.

System: BDF1 mice, L1210 6-MP/6-TG resistant leukemia ip, survival T/C
Test: NCI In Vivo Anticancer Drug Screen. Data for tumor model L1210 Leukemia resistant to 6-MP and 6-Thioguanine; NSC 755, NSC 752 (intraperitoneal) in B6D2F1 (BDF1) mice
Details: endpoint: mean survival time, higher = longer survival
Description: The antitumor activity of compounds was measured in mice bearing transplantable tumors. Survival or tumor size were measured and the results are expressed as the measurement made in the treated group (T) divided by the measurement made in the vehicle treated control group (C). The tumor model used in this assay is L1210 Leukemia resistant to 6-MP and 6-Thioguanine; NSC 755, NSC 752 (intraperitoneal) in B6D2F1 (BDF1) mice

[1] = dose: 12.5 mg/kg/injection, schedule: Q01DX Z (ip), vehicle: carboxymethylcellulose (CMC)
[2] = dose: 25.0 mg/kg/injection, schedule: Q01DX Z (ip), vehicle: carboxymethylcellulose (CMC)
[3] = dose: 50.0 mg/kg/injection, schedule: Q01DX Z (ip), vehicle: carboxymethylcellulose (CMC)
[4] = dose: 75.0 mg/kg/injection, schedule: Q01DX Z (ip), vehicle: carboxymethylcellulose (CMC)
[5] = dose: 100.0 mg/kg/injection, schedule: Q01DX Z (ip), vehicle: carboxymethylcellulose (CMC)

With `CN(Cc1cnc2nc(N)nc(N)c2n1)c1ccc(C(=O)N[C@@H](CCC(=O)O)C(=O)O)cc1` the T/C (dose: 0.6 mg/kg/injection, schedule: Q02DX010 (ip), vehicle: carboxymethylcellulose (CMC)) was 172 % of control, the T/C (dose: 0.9 mg/kg/injection, schedule: Q02DX010 (ip), vehicle: carboxymethylcellulose (CMC)) was 163 % of control and the T/C (dose: 1.3 mg/kg/injection, schedule: Q02DX010 (ip), vehicle: carboxymethylcellulose (CMC)) was 220 % of control. The T/C (dose: 2.0 mg/kg/injection, schedule: Q02DX010 (ip), vehicle: carboxymethylcellulose (CMC)) was 261 % of control, the T/C (dose: 3.0 mg/kg/injection, schedule: Q02DX010 (ip), vehicle: carboxymethylcellulose (CMC)) was 282 % of control and the T/C (dose: 4.5 mg/kg/injection, schedule: Q02DX010 (ip), vehicle: carboxymethylcellulose (CMC)) was 294 % of control. For the same compound, the T/C (dose: 6.75 mg/kg/injection, schedule: Q02DX010 (ip), vehicle: carboxymethylcellulose (CMC)) was 290 % of control.
For `S=c1nc[nH]c2c1ncn2C1CCCC1`, the T/C (dose: 10.0 mg/kg/injection, schedule: Q01DX015 (ip), vehicle: carboxymethylcellulose (CMC)) was 95 % of control, the T/C (dose: 10.0 mg/kg/injection, schedule: Q01DX015 (ip), vehicle: saline) was 100 % of control and the T/C (dose: 30.0 mg/kg/injection, schedule: Q01DX015 (ip), vehicle: carboxymethylcellulose (CMC)) was 98 % of control. For the same compound, the T/C (dose: 50.0 mg/kg/injection, schedule: Q01DX015 (ip), vehicle: carboxymethylcellulose (CMC)) was 97 % of control and the T/C (dose: 50.0 mg/kg/injection, schedule: Q01DX015 (ip), vehicle: saline) was 93 % of control.
`OCC1OC(n2cnc3c(=S)nc[nH]c32)CC1O` (configuration not stated) was tested, and the T/C (dose: 62.0 mg/kg/injection, schedule: Q01DX015 (ip), vehicle: carboxymethylcellulose (CMC)) was 98 % of control, the T/C (dose: 125.0 mg/kg/injection, schedule: Q01DX015 (ip), vehicle: carboxymethylcellulose (CMC)) was 96 % of control and the T/C (dose: 250.0 mg/kg/injection, schedule: Q01DX015 (ip), vehicle: carboxymethylcellulose (CMC)) was 93 % of control.
With `OCC1OC(n2cnc3c(Cl)ncnc32)C(O)C1O` (configuration not stated) the T/C (dose: 62.5 mg/kg/injection, schedule: Q01DX Z (ip), vehicle: carboxymethylcellulose (CMC)) was 91 % of control, the T/C (dose: 125.0 mg/kg/injection, schedule: Q01DX Z (ip), vehicle: carboxymethylcellulose (CMC)) was 89 % of control and the T/C (dose: 250.0 mg/kg/injection, schedule: Q01DX Z (ip), vehicle: carboxymethylcellulose (CMC)) was 95 % of control. The T/C (dose: 500.0 mg/kg/injection, schedule: Q01DX Z (ip), vehicle: carboxymethylcellulose (CMC)) was 95 % of control, the T/C (dose: 1000.0 mg/kg/injection, schedule: Q01DX001 (ip), vehicle: carboxymethylcellulose (CMC)) was 92 % of control and 97 % of control and the T/C (dose: 1500.0 mg/kg/injection, schedule: Q01DX001 (ip), vehicle: carboxymethylcellulose (CMC)) was 94 % of control and 99 % of control. For the same compound, the T/C (dose: 2000.0 mg/kg/injection, schedule: Q01DX001 (ip), vehicle: carboxymethylcellulose (CMC)) was 94 % of control and 97 % of control.
`c1ccc(CNc2ncnc3[nH]ncc23)cc1` was tested, and the T/C (dose: 1.5 mg/kg/injection, schedule: Q01DX Z (ip), vehicle: carboxymethylcellulose (CMC)) was 96 % of control, the T/C (dose: 3.0 mg/kg/injection, schedule: Q01DX Z (ip), vehicle: carboxymethylcellulose (CMC)) was 93 % of control and the T/C (dose: 6.25 mg/kg/injection, schedule: Q01DX Z (ip), vehicle: carboxymethylcellulose (CMC)) was 101 % of control. For the same compound, the T/C [1] was 88 % of control, the T/C [2] was 92 % of control and the T/C [3] was 93 % of control.
`CN(C)c1ccc(/C=C/c2ccnc3ccccc23)cc1` was tested, and the T/C (dose: 1.87 mg/kg/injection, schedule: Q01DX Z (ip), vehicle: saline) was 115 % of control, the T/C (dose: 3.75 mg/kg/injection, schedule: Q01DX Z (ip), vehicle: saline) was 109 % of control and the T/C (dose: 7.5 mg/kg/injection, schedule: Q01DX Z (ip), vehicle: saline) was 115 % of control. For the same compound, the T/C (dose: 15.0 mg/kg/injection, schedule: Q01DX Z (ip), vehicle: saline) was 110 % of control, the T/C (dose: 25.0 mg/kg/injection, schedule: Q01DX Z (ip), vehicle: saline) was 102 % of control and the T/C (dose: 50.0 mg/kg/injection, schedule: Q01DX Z (ip), vehicle: saline) was 90 % of control.
`CCn1cnc2c(=S)nc[nH]c21` was tested, and the T/C [3] was 91 % of control, the T/C [4] was 94 % of control and the T/C [5] was 92 % of control. For the same compound, the T/C (dose: 150.0 mg/kg/injection, schedule: Q01DX Z (ip), vehicle: carboxymethylcellulose (CMC)) was 87 % of control.
`CC(C)Cn1cnc2c(=S)nc(N)[nH]c21` was tested, and the T/C (dose: 9.0 mg/kg/injection, schedule: Q01DX015 (ip), vehicle: other) was 107 % of control, the T/C (dose: 14.0 mg/kg/injection, schedule: Q01DX015 (ip), vehicle: other) was 106 % of control and the T/C (dose: 21.0 mg/kg/injection, schedule: Q01DX015 (ip), vehicle: other) was 102 % of control. For the same compound, the T/C (dose: 36.0 mg/kg/injection, schedule: Q01DX015 (ip), vehicle: other) was 95 % of control.
With `N#CCSc1ncnc2nc[nH]c12` the T/C [1] was 86 % of control, the T/C [2] was 88 % of control and the T/C (dose: 37.5 mg/kg/injection, schedule: Q01DX Z (ip), vehicle: carboxymethylcellulose (CMC)) was 87 % of control. The T/C [4] was 90 % of control and the T/C [5] was 100 % of control.
`CCC(=O)OCC1OC(n2cnc3c(=S)nc(N)[nH]c32)C(OC(=O)CC)C1OC(=O)CC` (configuration not stated) was tested, and the T/C (dose: 5.0 mg/kg/injection, schedule: Q01DX Z (ip), vehicle: carboxymethylcellulose (CMC)) was 109 % of control, the T/C (dose: 10.0 mg/kg/injection, schedule: Q01DX Z (ip), vehicle: carboxymethylcellulose (CMC)) was 117 % of control and the T/C (dose: 20.0 mg/kg/injection, schedule: Q01DX Z (ip), vehicle: carboxymethylcellulose (CMC)) was 109 % of control. The T/C (dose: 40.0 mg/kg/injection, schedule: Q01DX Z (ip), vehicle: carboxymethylcellulose (CMC)) was 103 % of control.
For `Cc1c(O)ccc(=O)n1O`, the T/C (dose: 73.0 mg/kg/injection, schedule: Q01DX Z (ip), vehicle: other) was 108 % of control and the T/C (dose: 165.0 mg/kg/injection, schedule: Q01DX Z (ip), vehicle: other) was 103 % of control.
`c1nc(Sc2ncnc3nc[nH]c23)c2[nH]cnc2n1` was tested, and the T/C (dose: 37.0 mg/kg/injection, schedule: Q01DX009 (ip), vehicle: other) was 100 % of control, the T/C (dose: 75.0 mg/kg/injection, schedule: Q01DX009 (ip), vehicle: other) was 107 % of control and the T/C (dose: 150.0 mg/kg/injection, schedule: Q01DX009 (ip), vehicle: other) was 95 % of control. The T/C (dose: 300.0 mg/kg/injection, schedule: Q01DX009 (ip), vehicle: other) was 91 % of control.
In the case of `c1nc(SC2=NCCN2)c2[nH]cnc2n1`, the T/C (dose: 6.25 mg/kg/injection, schedule: Q01DX Z (ip), vehicle: saline) is reported as 98 % of control and the T/C (dose: 12.5 mg/kg/injection, schedule: Q01DX Z (ip), vehicle: saline) is reported as 93 % of control.
For `CC[C@]1(O)C[C@H]2CN(CCc3c([nH]c4ccccc34)[C@@](C(=O)OC)(c3cc4c(cc3OC)N(C=O)[C@H]3[C@@](O)(C(=O)OC)[C@H](OC(C)=O)[C@]5(CC)C=CCN6CC[C@]43[C@@H]65)C2)C1`, the T/C (dose: 0.09 mg/kg/injection, schedule: Q01DX015 (ip), vehicle: carboxymethylcellulose (CMC)) was 91 % of control and 110 % of control, the T/C (dose: 0.13 mg/kg/injection, schedule: Q01DX015 (ip), vehicle: carboxymethylcellulose (CMC)) was 114 % of control and 98 % of control and the T/C (dose: 0.2 mg/kg/injection, schedule: Q01DX015 (ip), vehicle: carboxymethylcellulose (CMC)) was 94 % of control and 106 % of control. The T/C (dose: 0.3 mg/kg/injection, schedule: Q01DX015 (ip), vehicle: carboxymethylcellulose (CMC)) was 90 % of control and 92 % of control and the T/C (dose: 0.45 mg/kg/injection, schedule: Q01DX015 (ip), vehicle: carboxymethylcellulose (CMC)) was 93 % of control.
`O=c1[nH]cnc2n[nH]nc12` was tested, and the T/C (dose: 278.0 mg/kg/injection, schedule: Q01DX009 (ip), vehicle: saline with Tween-80) was 99 % of control, the T/C (dose: 423.0 mg/kg/injection, schedule: Q01DX009 (ip), vehicle: Klucel (hydroxypropylcellulose) (HPC)) was 96 % of control and the T/C (dose: 423.0 mg/kg/injection, schedule: Q01DX009 (ip), vehicle: saline with Tween-80) was 98 % of control. For the same compound, the T/C (dose: 632.0 mg/kg/injection, schedule: Q01DX009 (ip), vehicle: Klucel (hydroxypropylcellulose) (HPC)) was 100 % of control, the T/C (dose: 632.0 mg/kg/injection, schedule: Q01DX009 (ip), vehicle: saline with Tween-80) was 98 % of control and the T/C (dose: 948.0 mg/kg/injection, schedule: Q01DX009 (ip), vehicle: saline with Tween-80) was 94 % of control.
In the case of `OCn1cnc2c(SC3CCCC3)ncnc21`, the T/C (dose: 12.5 mg/kg/injection, schedule: Q01DX009 (ip), vehicle: other) is reported as 91 % of control and the T/C (dose: 50.0 mg/kg/injection, schedule: Q01DX009 (ip), vehicle: other) is reported as 89 % of control and 93 % of control.
